Results taken from US9580398B2, “Compounds, compositions, and methods for modulating ferroptosis and treating excitotoxic disorders” (The Trustees of Columbia University in the City of New York, priority 2012, dated 2017).

Key:
[1] = test system: Calu-1 cells; assay: Erastin-induced ferroptosis in Calu-1 cells with NOX pathway inhibitors; type: cell-based, human
Protocol: (§1) Cell viability was typically assessed in 384-well format by Alamar Blue (Invitrogen) fluorescence (ex/em 530/590) measured on a Victor3 platereader (Perkin Elmer, Waltham, Mass.). In some experiments, Trypan Blue dye exclusion counting was performed using an automated cell counter (ViCell, Beckman-Coulter Inc., Brea, Calif.). Cell viability in test conditions is reported as a percentage relative to the negative control treatment.

[2] = test system: BJeLR cells; assay: Erastin-induced death and ROS production in BJeLR cells; type: cell-based, human; details: erastin 10 μM, 6-AN 200 μM
Protocol: The day before the experiment, 200,000 cells/well were seeded in 6-well dishes (Corning Inc., Corning, N.Y.). The day of the experiment, cells were treated with test compounds for the indicated times, then harvested by trypsinization, resuspended in 500 μL Hanks Balanced Salt Solution (HBSS, Gibco, Invitrogen Corp., Carlsbad, Calif.) containing either H2DCFDA (25 μM), C11-BODIPY(581/591) (2 μM) or MitoSOX (5 μM) (all from Molecular Probes, Invitrogen) and incubated for 10 minutes at 37° C. in a tissue culture incubator. Cells were then resuspended in 500 μL of fresh HBSS, strained through a […] cell strainer (BD Falcon, BD Biosciences, San Jose, Calif.), and analyzed using a flow cytometer (FACSCalibur or Accuri C6, BD Biosciences), which was equipped with 488-nm laser for excitation. Data was collected from the FL1 (H2DCFDA, C11-BODIPY) or FL2 channel (MitoSOX). A minimum of 10,000 cells were analyzed per condition.
as §1

[3] = test system: BJeLR and HT-1080 cells; assay: Measurement of ATP levels; type: cell-based, human; details: normalized to viability
Protocol: ATP levels were evaluated using the ApoSENSOR ATP Assay Kit (Biovision Inc., Milpitas, Calif.) according to the manufacturer's instructions. 2000 HT-1080 or BJeLR cells were seeded in 96-well white bottom plates (Falcon). Cells were treated 12 hours later with compound as above for the TEM. Prior to luminescence measurement, medium was removed and cells were lysed and incubated with ATP Monitoring Enzyme. Luminescence was measured using a Victor3 platereader equipped with an infrared emission filter every 30 seconds for 10 minutes. Typically the first reading was used for data analysis. Parallel cell culture treatments were performed in 96-well clear bottom plates and cell viability was determined using Alamar Blue. These values were used to normalize ATP levels to cell viability.

[4] = target: T1, system xc− (Homo sapiens, UniProt Q9UPY5); assay: [14C]cystine uptake assay (Na+-independent); type: cell-based; details: HT-1080 cells; erastin 10 μM, glutamate 50 mM, SAS 1 mM
T1 construct: endogenous in cells; host or cells: HT-1080 (American Type Culture Collection)
T1 sequence (Q9UPY5 1-501): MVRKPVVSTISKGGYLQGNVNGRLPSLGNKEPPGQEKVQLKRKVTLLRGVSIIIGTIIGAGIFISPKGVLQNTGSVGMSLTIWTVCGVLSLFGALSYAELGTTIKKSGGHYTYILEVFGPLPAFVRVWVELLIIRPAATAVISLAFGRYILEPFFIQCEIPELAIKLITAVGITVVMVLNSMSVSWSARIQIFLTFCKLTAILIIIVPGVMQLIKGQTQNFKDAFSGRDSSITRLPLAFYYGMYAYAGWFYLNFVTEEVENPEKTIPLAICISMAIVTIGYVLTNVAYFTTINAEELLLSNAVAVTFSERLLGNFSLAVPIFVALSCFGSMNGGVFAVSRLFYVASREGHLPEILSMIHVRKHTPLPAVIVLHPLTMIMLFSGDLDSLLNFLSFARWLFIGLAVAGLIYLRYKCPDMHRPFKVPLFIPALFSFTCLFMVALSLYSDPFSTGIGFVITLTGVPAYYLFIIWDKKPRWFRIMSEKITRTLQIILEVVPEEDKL
T1 sequence (P08195 1-529 partner): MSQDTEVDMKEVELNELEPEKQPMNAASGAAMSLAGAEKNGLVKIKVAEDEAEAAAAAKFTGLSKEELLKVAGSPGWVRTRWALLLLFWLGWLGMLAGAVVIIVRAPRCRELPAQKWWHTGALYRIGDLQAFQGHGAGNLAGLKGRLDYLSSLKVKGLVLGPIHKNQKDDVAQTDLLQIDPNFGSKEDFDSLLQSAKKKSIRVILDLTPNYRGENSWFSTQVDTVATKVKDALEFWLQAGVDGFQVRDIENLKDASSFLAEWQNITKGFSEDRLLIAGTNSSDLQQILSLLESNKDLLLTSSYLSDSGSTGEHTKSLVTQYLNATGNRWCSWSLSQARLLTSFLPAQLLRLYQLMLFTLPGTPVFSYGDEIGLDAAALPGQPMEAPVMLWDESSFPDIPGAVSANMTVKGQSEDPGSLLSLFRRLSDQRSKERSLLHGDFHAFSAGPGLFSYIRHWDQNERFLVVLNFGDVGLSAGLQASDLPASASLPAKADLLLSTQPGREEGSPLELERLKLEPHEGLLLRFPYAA
Protocol: 200,000 HT-1080 cells/well were seeded overnight in 6-well dishes (Corning). […] At this point, in each well the buffer was replaced with 600 μL uptake buffer containing compound and 0.12 μCi (80-110 mCi/mmol) of L-[3,3′-^14C]-cystine (Perkin Elmer) and incubated for 3 minutes at 37° C. Cells were then washed three times with ice-cold uptake buffer and lysed in 500 μL 0.1 M NaOH. To this lysate was added 15 mL of scintillation fluid and radioactive counts per minute were obtained using a scintillation counter. All measurements were performed in triplicate for each condition.

[5] = test system: HT-1080 cells; assay: Erastin-induced death in HT-1080 cells with co-treated inhibitors (viability, microscopy); type: cell-based, human; details: HT-1080 cells
Protocol: as §1
Phase contrast images were acquired using an AMG EVOS FL (Advanced Microscopy Group) microscope equipped with a 10× phase-contrast objective. Three independent fields were acquired for each experimental condition. Representative samples from one field of view are shown.

[6] = test system: SLC7A11 mRNA in HT-1080 cells; assay: SLC7A11 mRNA levels by RT-qPCR; type: cell-based, human
Protocol: RNA was extracted using the Qiashredder and Qiagen RNeasy Mini kits (Qiagen) according to the manufacturer's protocol. 2 μg total RNA for each sample was used as input for each reverse transcription reaction, performed using the TaqMan RT kit (Applied Biosystems, Life Technologies Corp., Carlsbad, Calif.). Primer pairs were designed for target transcripts using Primer Express 2.0 (Applied Biosystems). Quantitative PCR reactions were performed using the Power SYBR Green PCR Master Mix (Applied Biosystems). Triplicate samples per condition were analyzed on an Applied Biosystems 7300 qPCR instrument using absolute quantification settings. Differences in mRNA levels compared to HPRT1 or ACTB internal reference control were computed between control and experimental conditions using the ΔΔCt method.

Row | Structure (SMILES) | suppression of erastin-induced ferroptosis in Calu-1 [1] | Na+-independent uptake of [14C]cystine [4] | also measured
1 | NC(=O)c1ccc(N)nc1 [6-AN, 6-aminonicotinamde] | strongly suppressed |  | cell death and ROS production in erastin-treated BJeLR [2]: prevented cell death as well as ROS production
2 | c1ccc2c(c1)[I+]c1ccccc1-2 [DPI, diphenylene iodonium] | strongly suppressed |  | 
3 | CN(C)c1cccc(-c2c3c(=O)n(-c4ccccc4Cl)[nH]c3cc(=O)n2C)c1 [GKT137831] | strongly suppressed |  | 
4 | OO [H2O2] |  |  | intracellular ATP [3]: substantial depletion of intracellular ATP
5 | COC(=O)c1ccc([C@@H]2c3[nH]c4ccccc4c3C[C@@H](C(=O)OC)N2C(=O)CCl)cc1 [RSL3] |  | had no effect | 
6 | O=C(O)c1cc(/N=N/c2ccc(S(=O)(=O)Nc3ccccn3)cc2)ccc1O [SAS, sulfasalazine] |  | abolished | 
7 | N[C@@H](CCC(=O)O)C(=O)O [glutamate] |  | abolished | 
8 | OCCS [β-ME, β-mercaptoethanol, reference compound] |  |  | inhibition of cell death induced by erastin, SAS and glutamate [5]: strongly inhibited cell death; effect on erastin/SAS-induced SLC7A11 upregulation [6]: suppressed
